According to patent US9163256B2, “Mutant receptors and their use in a nuclear receptor-based inducible gene expression system” (priority 2004, dated 2015):
Where two headings read alike, the source gives them in different places.

Tests used:
CfEcR-DEF mutant A110N = CfEcR-DEF mutant A110N (Choristoneura fumiferana, UniProt O77255, A393N); assay: cell-based; set-up: Concentration (mM) at max FI: unit not given here
Description: (§1) This construct was prepared in the same way as in switch 1.1 above except wild-type CfEcR-DEF was replaced with mutant CfEcR-DEF comprising a ligand binding domain comprising a substitution mutation selected from Table 1 below.
(§2) DNAs were transfected into mouse NIH3T3 cells (ATCC) as follows. Standard methods for culture and maintenance of the cells were followed. Cells were harvested and plated 96-well plates at 2,500 cells per well, in 50 μL of growth medium containing 10% fetal bovine serum (FBS). Twenty-four hours later, the cells were treated with 35 μL of serum-free growth medium containing either dimethylsulfoxide (DMSO; control) or a DMSO solution of ligand. The cells were then transfected using Superfect (Qiagen Inc.) transfection reagent. For each well, 0.625 μL of Superfect was mixed with 14.2 μL of serum-free growth medium. 0.16 μg of reporter construct and 0.04 μg of each receptor construct were added to the transfection reagent mix. The contents of the transfection mix were mixed in a vortex mixer and let stand at room temperature for 30 minutes. At the end of incubation, 15 μL of transfection mix was added to the cells. The cells were maintained at 37° C. and 5% CO2 for 48 hours in 5% FBS.
(§3) Reporter Assays: Cells were harvested 40 hours after adding ligands. 125 μL of passive lysis buffer (part of Dual-Luciferase reporter assay system from Promega Corporation) were added to each well of the […] plate. The plates were placed on a rotary shaker for 15 minutes. Twenty μL of lysate were assayed. Luciferase activity was measured using Dual-Luciferase reporter assay system from Promega Corporation following the manufacturer's instructions. Fold induction (FI) activities were calculated by dividing relative light units (“RLU”) in ligand treated cells with RLU in DMSO treated cells (untreated control).

CfEcR-DEF mutant W238E = CfEcR-DEF mutant W238E (Choristoneura fumiferana, UniProt O77255, W521E); assay: cell-based; set-up: Concentration (mM) at max FI: unit not given here
Chain of CfEcR-DEF mutant W238E (P28702 299-449): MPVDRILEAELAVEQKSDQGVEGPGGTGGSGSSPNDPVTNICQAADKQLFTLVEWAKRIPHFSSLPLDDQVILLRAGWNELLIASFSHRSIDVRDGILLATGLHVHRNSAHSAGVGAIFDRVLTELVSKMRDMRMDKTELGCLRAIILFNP
Chain of CfEcR-DEF mutant W238E (O77255 entry or part of it W521E): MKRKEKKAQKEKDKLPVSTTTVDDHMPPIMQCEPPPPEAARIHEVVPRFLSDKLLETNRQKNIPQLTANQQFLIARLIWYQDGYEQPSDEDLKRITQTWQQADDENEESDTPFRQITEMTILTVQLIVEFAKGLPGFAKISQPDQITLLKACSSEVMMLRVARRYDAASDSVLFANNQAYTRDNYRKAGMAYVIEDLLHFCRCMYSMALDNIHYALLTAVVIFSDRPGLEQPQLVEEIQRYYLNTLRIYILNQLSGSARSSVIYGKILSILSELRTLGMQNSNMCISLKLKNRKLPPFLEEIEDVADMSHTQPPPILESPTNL
Description: as §1, §2, §3

CfEcR-DEF mutant T52P = CfEcR-DEF mutant T52P (Choristoneura fumiferana, UniProt O77255, T335P); assay: cell-based; set-up: Concentration (mM) at max FI: unit not given here
Chain of CfEcR-DEF mutant T52P (P28702 298-449): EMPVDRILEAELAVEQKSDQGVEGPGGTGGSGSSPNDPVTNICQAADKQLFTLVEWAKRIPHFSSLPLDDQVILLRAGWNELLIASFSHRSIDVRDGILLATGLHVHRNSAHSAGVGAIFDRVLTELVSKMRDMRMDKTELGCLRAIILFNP
Chain of CfEcR-DEF mutant T52P (O77255 entry or part of it T335P): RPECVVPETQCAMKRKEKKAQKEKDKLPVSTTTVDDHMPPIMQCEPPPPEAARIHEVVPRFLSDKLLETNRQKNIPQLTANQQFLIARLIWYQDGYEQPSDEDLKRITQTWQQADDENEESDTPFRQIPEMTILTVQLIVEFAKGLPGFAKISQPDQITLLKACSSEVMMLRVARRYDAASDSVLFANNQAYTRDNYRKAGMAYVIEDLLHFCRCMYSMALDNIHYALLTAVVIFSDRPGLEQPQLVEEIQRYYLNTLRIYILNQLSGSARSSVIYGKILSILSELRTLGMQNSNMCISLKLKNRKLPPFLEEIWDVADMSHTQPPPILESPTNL
Description: as §1, §2, §3

CfEcR-DEF mutant V128F = CfEcR-DEF mutant V128F (Choristoneura fumiferana, UniProt O77255, V411F); assay: cell-based; set-up: Concentration (mM) at max FI: unit not given here
Chain of CfEcR-DEF mutant V128F (P28702 299-449): as the sequence (P28702 299-449) above
Chain of CfEcR-DEF mutant V128F (O77255 entry or part of it V411F): as the sequence (O77255 entry or part of it W521E) above, with V193F, E303W counted along it
Description: as §1, §2, §3

CfEcR-DEF mutant F48W = CfEcR-DEF mutant F48W (Choristoneura fumiferana, UniProt O77255, F331W); assay: cell-based; set-up: Concentration (mM) at max FI: unit not given here
Chain of CfEcR-DEF mutant F48W (P28702 299-449): as the sequence (P28702 299-449) above
Chain of CfEcR-DEF mutant F48W (O77255 entry or part of it F331W): as the sequence (O77255 entry or part of it T335P) above, with F125W, P129T counted along it
Description: as §1, §2, §3

CfEcR-DEF mutant Y120M = CfEcR-DEF mutant Y120M (Choristoneura fumiferana, UniProt O77255, Y403M); assay: cell-based; set-up: Concentration (mM) at max FI: unit not given here
Chain of CfEcR-DEF mutant Y120M (O77255 entry or part of it Y403M): as the sequence (O77255 entry or part of it W521E) above, with Y185M, E303W counted along it
Chain of CfEcR-DEF mutant Y120M (P28702 299-449, further chain): as the sequence (P28702 299-449) above
Description: as §1, §2, §3

CfEcR-DEF mutant F48Y = CfEcR-DEF mutant F48Y (Choristoneura fumiferana, UniProt O77255, F331Y); assay: cell-based; set-up: Concentration (mM) at max FI: unit not given here
Chain of CfEcR-DEF mutant F48Y (O77255 entry or part of it F331Y): as the sequence (O77255 entry or part of it T335P) above, with F125Y, P129T counted along it
Chain of CfEcR-DEF mutant F48Y (P28702 299-449, further chain): as the sequence (P28702 299-449) above
Description: as §1, §2, §3

CfEcR-DEF mutant F109M = CfEcR-DEF mutant F109M (Choristoneura fumiferana, UniProt O77255, F392M); assay: cell-based; set-up: Concentration (mM) at max FI: unit not given here
Chain of CfEcR-DEF mutant F109M (O77255 entry or part of it F392M): as the sequence (O77255 entry or part of it T335P) above, with P129T, F186M counted along it
Chain of CfEcR-DEF mutant F109M (P28702 299-449, further chain): as the sequence (P28702 299-449) above
Description: as §1, §2, §3

CfEcR-DEF mutant V96E = CfEcR-DEF mutant V96E (Choristoneura fumiferana, UniProt O77255, V379E); assay: cell-based; set-up: Concentration (mM) at max FI: unit not given here
Chain of CfEcR-DEF mutant V96E (O77255 entry or part of it V379E): as the sequence (O77255 entry or part of it W521E) above, with V161E, E303W counted along it
Chain of CfEcR-DEF mutant V96E (P28702 299-449, further chain): as the sequence (P28702 299-449) above
Description: as §1, §2, §3

CfEcR-DEF mutant F109N = CfEcR-DEF mutant F109N (Choristoneura fumiferana, UniProt O77255, F392N); assay: cell-based
Chain of CfEcR-DEF mutant F109N (P28702 299-449): as above
Chain of CfEcR-DEF mutant F109N (O77255 entry or part of it F392N): as the sequence (O77255 entry or part of it T335P) above, with P129T, F186N counted along it
Description: as §1, §2, §3

CfEcR-DEF mutant R95W = CfEcR-DEF mutant R95W (Choristoneura fumiferana, UniProt O77255, R378W); assay: cell-based
Chain of CfEcR-DEF mutant R95W (O77255 entry or part of it R378W): as the sequence (O77255 entry or part of it W521E) above, with R160W, E303W counted along it
Chain of CfEcR-DEF mutant R95W (P28702 299-449, further chain): as the sequence (P28702 299-449) above
Description: as §1, §2, §3

CfEcR-DEF mutant L132M = CfEcR-DEF mutant L132M (Choristoneura fumiferana, UniProt O77255, L415M); assay: cell-based; type: cell-based; details: for Emax: NIH3T3, 40 h, read-out: Rel Max FI, mutant L132M
Chain of CfEcR-DEF mutant L132M (O77255 entry or part of it L415M): as the sequence (O77255 entry or part of it T335P) above, with P129T, L209M counted along it
Chain of CfEcR-DEF mutant L132M (P28702 298-449, further chain): as the sequence (P28702 298-449) above
Description: as §1, §2, §3

CfEcR-DEF mutant F48N = CfEcR-DEF mutant F48N (Choristoneura fumiferana, UniProt O77255, F331N); assay: GAL4-driven luciferase reporter assay in NIH3T3 cells; type: cell-based
Chain of CfEcR-DEF mutant F48N (O77255 entry or part of it F331N): as the sequence (O77255 entry or part of it T335P) above, with F125N, P129T counted along it
Chain of CfEcR-DEF mutant F48N (P28702 299-449, further chain): as the sequence (P28702 299-449) above
Description: as §1, §2, §3

[1] = molecular target: CfEcR-DEF mutant V107I/Y127E/T52V (Choristoneura fumiferana, UniProt O77255, T335V/V390I/Y410E); assay: as above; type: cell-based
Chain of CfEcR-DEF mutant V107I/Y127E/T52V (P28702 299-449): as above
Chain of CfEcR-DEF mutant V107I/Y127E/T52V (O77255 entry or part of it T335V/V390I/Y410E): as the sequence (O77255 entry or part of it W521E) above, with T117V, V172I, Y192E, E303W counted along it
Description: as §1, §2, §3

[2] = molecular target: CfEcR-DEF mutant T52V/A110P (Choristoneura fumiferana, UniProt O77255, A393P/T335V); assay: as above; type: cell-based
Chain of CfEcR-DEF mutant T52V/A110P (O77255 entry or part of it T335V/A393P): as the sequence (O77255 entry or part of it W521E) above, with T117V, A175P, E303W counted along it
Chain of CfEcR-DEF mutant T52V/A110P (P28702 299-449, stated change not applied, further chain): as the sequence (P28702 299-449) above
Description: as §1, §2, §3

CfEcR-DEF mutant M125W = CfEcR-DEF mutant M125W (Choristoneura fumiferana, UniProt O77255, M408W); assay: as above; type: cell-based
Chain of CfEcR-DEF mutant M125W (O77255 entry or part of it M408W): as the sequence (O77255 entry or part of it T335P) above, with P129T, M202W counted along it
Chain of CfEcR-DEF mutant M125W (P28702 299-449, further chain): as the sequence (P28702 299-449) above
Description: as §1, §2, §3

[3] = molecular target: CfEcR-DEF mutant V107I/Y127E/G (Choristoneura fumiferana, UniProt O77255, INS541G/V390I/Y410E); assay: as above; type: cell-based
Chain of CfEcR-DEF mutant V107I/Y127E/G (P28702 299-449, stated change not applied): as the sequence (P28702 299-449) above
Chain of CfEcR-DEF mutant V107I/Y127E/G (O77255 entry or part of it V390I/Y410E/INS541G): as the sequence (O77255 entry or part of it W521E) above, with E303W counted along it
Description: as §1
The Gal-4-CfEcR-DEF(VYG) mutant was created by inserting an extra glycine at the C-terminal end of EcR substitution mutant V107I/Y127E [CfECR(VY)] by PCR. Essentially, this was done in two steps: PCR-amplification of CfEcR-DEF(VYG) and substitution of the CfEcR(VY) in the vector GAL4-CfEcR DEF(VY) pBIND 1-9 with the PCR-amplified CfEcR-DEF(VYG). The CfEcR-DEF region (with the extra glycine) was amplified by using the vector GAL4-CfEcR DEF(VY) pBIND 1-9 as template and the following PCR primers: […]
as §2, §3

[4] = NIH3T3, 40 h, read-out: Rel Max FI
[5] = NIH3T3, mouse, 40 h, read-out: GS-E ligand max FI (relative to DMSO)

Chain of CfEcR-DEF mutant A110N (O77255 entry or part of it A393N): as the sequence (O77255 entry or part of it T335P) above, with P129T, A187N counted along it
Chain of CfEcR-DEF mutant A110N (P28702 299-449, stated change not applied, further chain): as the sequence (P28702 299-449) above

SMILES: CCc1c(OC)cccc1C(=O)NN(C(=O)c1cc(C)cc(C)c1)C(C)(C)C [RG-102240, N-(2-ethyl-3-methoxybenzoyl)-N′-(3,5-dimethylbenzoyl)-N′-tert-butylhydrazine]
- EC50 (CfEcR-DEF mutant A110N): 1.41 µM
- Emax (CfEcR-DEF mutant A110N; [4]): 100%
- maximal fold induction (CfEcR-DEF mutant A110N; [5]): 1680
- Concentration (mM) at max FI (CfEcR-DEF mutant A110N; mutant A110N, GS-E ligand): 10.00
- EC50 (CfEcR-DEF mutant W238E): ~6 µM
- Emax (CfEcR-DEF mutant W238E; [4]): 100%
- maximal fold induction (CfEcR-DEF mutant W238E; [5]): 1020
- Concentration (mM) at max FI (CfEcR-DEF mutant W238E; mutant W238E, GS-E ligand): 33.3
- EC50 (CfEcR-DEF mutant T52P): ~10 µM
- Emax (CfEcR-DEF mutant T52P; [4]): 100%
- maximal fold induction (CfEcR-DEF mutant T52P; [5]): 301
- Concentration (mM) at max FI (CfEcR-DEF mutant T52P; mutant T52P, GS-E ligand): 33.3
- EC50 (CfEcR-DEF mutant V128F; EC50, mutant V128F): > 33 µM
- Emax (CfEcR-DEF mutant V128F; [4]): 0%
- maximal fold induction (CfEcR-DEF mutant V128F; [5]): 550
- Concentration (mM) at max FI (CfEcR-DEF mutant V128F; mutant V128F, GS-E ligand): 33.30
- EC50 (CfEcR-DEF mutant F48W): ~1 µM
- Emax (CfEcR-DEF mutant F48W; [4]): 100%
- maximal fold induction (CfEcR-DEF mutant F48W; [5]): 1640
- Concentration (mM) at max FI (CfEcR-DEF mutant F48W; mutant F48W, GS-E ligand): 33.3
- EC50 (CfEcR-DEF mutant Y120M): ~4 µM
- Emax (CfEcR-DEF mutant Y120M; [4]): 100%
- maximal fold induction (CfEcR-DEF mutant Y120M; [5]): 1710
- Concentration (mM) at max FI (CfEcR-DEF mutant Y120M; mutant Y120M, GS-E ligand): 33.3
- EC50 (CfEcR-DEF mutant F48Y): 1.27 µM
- Emax (CfEcR-DEF mutant F48Y; [4]): 100%
- maximal fold induction (CfEcR-DEF mutant F48Y; [5]): 1360
- Concentration (mM) at max FI (CfEcR-DEF mutant F48Y; mutant F48Y, GS-E ligand): 33.3
- EC50 (CfEcR-DEF mutant F109M): 0.66 µM
- Emax (CfEcR-DEF mutant F109M; [4]): 100%
- maximal fold induction (CfEcR-DEF mutant F109M; [5]): 1480
- Concentration (mM) at max FI (CfEcR-DEF mutant F109M; mutant F109M, GS-E ligand): 3.3
- EC50 (CfEcR-DEF mutant V96E): ~2 µM
- Emax (CfEcR-DEF mutant V96E; [4]): 100%
- maximal fold induction (CfEcR-DEF mutant V96E; [5]): 2960
- Concentration (mM) at max FI (CfEcR-DEF mutant V96E; mutant V96E, GS-E ligand): 33.30
- EC50 (CfEcR-DEF mutant F109N): 2.7 µM
- Emax (CfEcR-DEF mutant F109N; [4]): 100%
- maximal fold induction (CfEcR-DEF mutant F109N; [5]): 1510
- Concentration (mM) at max FI (CfEcR-DEF mutant F109N; mutant F109N, GS-E ligand): 0.0333 mM
- EC50 (CfEcR-DEF mutant R95W): ~7 µM
- Emax (CfEcR-DEF mutant R95W; [4]): 100%
- maximal fold induction (CfEcR-DEF mutant R95W; [5]): 1820
- Concentration (mM) at max FI (CfEcR-DEF mutant R95W; mutant R95W, GS-E ligand): 33.30 mM
- Emax (CfEcR-DEF mutant L132M): 100%
- Emax (CfEcR-DEF mutant L132M; relative to max fold induction of GS-E ligand): 100%
- maximal fold induction (CfEcR-DEF mutant L132M; [5]): 1520
- Concentration at max FI (CfEcR-DEF mutant L132M; mutant L132M, GS-E ligand): 10.00 mM
- EC50 (CfEcR-DEF mutant F48N): 0.75 µM
- Emax (CfEcR-DEF mutant F48N; [4]): 100%
- EC50 [1]: 0.06 µM
- Emax [1, 4]: 100%
- EC50 [2]: 0.33 µM
- Emax [2, 4]: 100%
- EC50 (CfEcR-DEF mutant M125W): 3.49 µM
- Emax (CfEcR-DEF mutant M125W; [4]): 100%
- EC50 [3]: 0.17 µM
- Emax [3, 4]: 100%
